Data published in US20020055512A1, “Compositions for delivery of a cortisol antagonist” (CORTENDO AB., priority 2000, published 2002).

Experiment: Solubility of ketoconazole in lipid excipients (observation of undissolved crystals)
Format: physicochemical
Conditions: ambient room temperature; estimated
Experimental: The solubility of ketoconazole in glycerol monooleate was assessed at 37° C. according to the following method. 2 g samples of ketoconazole (USP) and glycerol monooleate were mixed together in various proportions and put on a magnetic stirrer at 37° C. Samples containing 1, 3 and 5 wt. % of ketoconazole were investigated for the observation of ketoconazole crystals. Samples containing 1 wt. % ketoconazole were completely dissolved after less than 18 h but more than 2 h. Samples containing 3 wt % ketoconazole were almost homogeneous after 48 h, after which no further change of the sample took place. […] Thus, at 37° C. ketoconazole has a limited solubility in glycerol monooleate. It is estimated to be between 1 and 3 wt. %.
The solubility of ketoconazole in oleic acid was assessed at ambient room temperature using the method described in Example 1. Samples containing 5, 10, 15 and 33 wt. % of ketoconazole were mixed with oleic acid and the appearance of undissolved ketoconazole was investigated after 24 and 48 h. After 24 hours samples containing 5 wt. % ketoconazole were completely dissolved and after 48 h samples containing 10 wt. % of ketoconazole were completely homogenous and all ketoconazole was dissolved. Thus the solubility of ketoconazole in oleic acid is estimated to be about 10 wt. %.

With `CC(=O)N1CCN(c2ccc(OCC3COC(Cn4ccnc4)(c4ccc(Cl)cc4Cl)O3)cc2)CC1` (stereo not shown) [ketoconazole, Ketoconazole] the “solubility of ketoconazole in oleic acid” value was “about 10 wt. %”.
